US20250186326A1, “Anti-Aging Compositions” (PROGELIFE, priority 2022, published 2025)

Tests used:
farnesylation of HDJ2 = test: Western blot of unfarnesylated HDJ2 in human skin fibroblasts (inhibition of farnesylation); format: cell-based; details: human skin fibroblasts AG13334, 72 h, Ritonavir 4 μM and Lopinavir 20 μM added
Description: (§1) Control Human fibroblast from skin (AG13334) were obtained from Coriell Institute. Cells were maintained in culture according to supplier information at 37° C. in a humidified atmosphere containing 5% CO2.
(§2) Fibroblasts were cultured 72 h without culture-media renewal.
(§3) Pravastatin/Compound II.3a • 14. Pravastatin/Compound II.2 • 15. Pravastatin/Compound I.12 • 16. Pravastatin/Compound II.5
(§4) Ritonavir (4 μM) and Lopinavir (20 μM) were added in all tested conditions to improve the lower limit of detection of prenylated prelamin A in western blots.
(§5) Total fibroblast proteins were extracted after 72 hours treatment in 100 μl of NP40 (Invitrogen) with 1× protease and phosphatase inhibitor cocktail (Life Technologies). Lysates were incubated on ice for 30 minutes, with vortexing at 10-minute intervals. Finally, they were sonicated four times (20 sec each) and then centrifuged at 13000 rpm for 10 minutes at 4° C.
(§6) Protein concentrations were determined with the BCA™ Protein Assay (Life Technologies).
(§7) The following antibodies were used in this study: rabbit monoclonal anti-lamin A/C (ab108922, 1/1000, Abcam, Amsterdam, Netherlands), mouse monoclonal anti-prelamin A (MABT858, Millipore, Molsheim, France), mouse monoclonal anti-HDJ2 (MA5-12748, Thermoscientific, France). Secondary antibodies conjugated with IR-Dye 800CW or 680 were used according to the manufacturer's instructions (926-32213 and 926-68072, 1/5000, Li-COR Biosciences).
(§8) Protein lysates were separated on NuPAGE™ Novex™ 8% Bis-Tris Midi Protein Gels (Life Technologies) and transferred to Immobilon-FL PVDF membranes (Millipore, Molsheim, France). Membranes were blocked for one hour in 1:1 diluted blocking buffer for near fluorescent western blotting (Rockland, Le Perray, France). Blocked membranes were incubated with primary antibody anti-prelamin A overnight at 4° C., following which they were washed and incubated with conjugated secondary antibody for one hour at room temperature. Then, this step was repeated with primary antibodies for HDJ2 and LMNA/C, and conjugated secondary antibodies.
(§9) Bound antibodies were detected and analyzed on an Odyssey imaging system (Li-COR Biosciences, Bad Homburg, Germany) according to the manufacturer's instructions. Revert Protein Stain (Li-COR Biosciences) was used as a total protein loading control.

[1] = test system: farnesylation of prelamin A; test: Western blot of prelamin A in human skin fibroblasts (inhibition of farnesylation); format: cell-based; details: human skin fibroblasts AG13334, 72 h, Ritonavir 4 μM and Lopinavir 20 μM added
Description: as §1, §2, §3, §4, §5, §6, §7, §8, §9

wrinkles/fine lines = details: 3 ppm pal-KTTKS in moisturizer, topical, 12 weeks, split-face; cited from earlier work
[2] = tested compound combined with Alendronate 10 μM
[3] = tested compound combined with Pravastatin 10 μM
[4] = controls: alendronate and/or pravastatin 10 μM without tested compound

## Oc1ccc(/C=C/c2cc(O)cc(O)c2)cc1 [Compound I.1a]
Farnesylation of HDJ2; [2]
  unfarnesylated HDJ2 band (western blot, FIG. 1): Clear bands
[1]; [2]
  prelamin A band (western blot, FIG. 1): Clear bands

## O=c1c2cc(O)c(O)cc2oc2cc(O)c([C@@H]3O[C@H](CO)[C@@H](O)[C@H](O)[C@H]3O)c(O)c12 [Compound I.6a]
Farnesylation of HDJ2; [2]
  unfarnesylated HDJ2 band (western blot, FIG. 1): Clear bands
[1]; [2]
  prelamin A band (western blot, FIG. 1): Clear bands

## COc1ccc([C@@H]2CC(=O)c3c(O)cc(O[C@@H]4O[C@H](CO)[C@@H](O)[C@H](O)[C@H]4O[C@@H]4O[C@@H](C)[C@H](O)[C@@H](O)[C@H]4O)cc3O2)cc1O [Compound I.7a]
Farnesylation of HDJ2; [2]
  unfarnesylated HDJ2 band (western blot, FIG. 1): Clear bands
[1]; [2]
  prelamin A band (western blot, FIG. 1): Clear bands

## C[C@@H]1O[C@@H](O[C@H]2[C@H](Oc3cc(O)c4c(c3)O[C@H](c3ccc(O)cc3)CC4=O)O[C@H](CO)[C@@H](O)[C@@H]2O)[C@H](O)[C@H](O)[C@H]1O [Compound I.8a]
Farnesylation of HDJ2; [2]
  unfarnesylated HDJ2 band (western blot, FIG. 1): Clear bands
[1]; [2]
  prelamin A band (western blot, FIG. 1): Clear bands

## OC[C@H]1O[C@@H](OCCc2ccc(O)cc2)[C@H](O)[C@@H](O)[C@@H]1O [Compound I.12]
Farnesylation of HDJ2; [3]
  unfarnesylated HDJ2 band (western blot, FIG. 1): Clear bands
[1]; [3]
  prelamin A band (western blot, FIG. 1): Clear bands

## O=c1cc(-c2ccc(O)cc2)oc2cc(O)cc(O)c12 [Compound II.1]
Farnesylation of HDJ2; [3]
  unfarnesylated HDJ2 band (western blot, FIG. 1): Clear bands
[1]; [3]
  prelamin A band (western blot, FIG. 1): Clear bands

## O=C1c2cccc(O)c2C(=O)c2c(O)cc(CO)cc21 [Compound II.2]
Farnesylation of HDJ2; [3]
  unfarnesylated HDJ2 band (western blot, FIG. 1): Clear bands
[1]; [3]
  prelamin A band (western blot, FIG. 1): Clear bands

## Oc1cc(O)c2c(c1)O[C@H](c1ccc(O)c(O)c1)[C@@H](O)C2 [Compound II.3a]
Farnesylation of HDJ2; [3]
  unfarnesylated HDJ2 band (western blot, FIG. 1): Clear bands
[1]; [3]
  prelamin A band (western blot, FIG. 1): Clear bands

## O=c1c(O)c(-c2ccc(O)c(O)c2)oc2cc(O)cc(O)c12 [Compound II.5]
Farnesylation of HDJ2; [3]
  unfarnesylated HDJ2 band (western blot, FIG. 1): Clear bands
[1]; [3]
  prelamin A band (western blot, FIG. 1): Clear bands

## NCCCC(O)(P(=O)(O)O)P(=O)(O)O [alendronate, reference compound]
Farnesylation of HDJ2; [4]
  unfarnesylated HDJ2 band (western blot, FIG. 1): essentially absent
[1]; [4]
  prelamin A band (western blot, FIG. 1): essentially absent

## palmitoyl-lysine-threonine-threonine-lysine-serine [pal-KTTKS]
wrinkles/fine lines
  reduction in wrinkles/fine lines vs. placebo control (quantitative technical and expert grader image analysis): significant improvement
